These results are taken from patent publication US10399966B2, “Compounds for treatment of trypanosomes and neurological pathogens and uses thereof” (The University of North Carolina at Chapel Hill, priority 2016, dated 2019).

Molecules are shown by their SMILES. “And” between values parts separate entries of the source, which are not always exact repeats. Identical values can stand only once.

By EC50 is commonly meant the concentration needed to bring the measured effect to its halfway point.

Data set [1] has as its system Leishmania amazonensis. In words: Antimicrobial activity against Leishmania amazonensis. Particulars: Table 1, Leishmania amazonensis. Format: cell-based.
The subject of data set [2] is T. b. rhodesiense STIB900. As to the kind of experiment: Mouse efficacy model of acute T. brucei infection. Format: in vivo. Particulars: 50 mg/kg po b.i.d. x 4 days from day 2, no detectable parasitemia 60 days post-infection. The protocol: For acute efficacy studies in mice, experiments were carried out using the standard operating procedure used by WHO screening centers and done in compliance with the University of Washington Institutional Animal Care and Use Committee (IACUC) approved protocol. […] The test compound was administered by oral gavage at 50 mg/kg every 12 h from day 2 to day 5, for a total of 8 doses in a 200 μL volume of a vehicle consisting of DMSO (5%), Tween 80 (7%), and EtOH (3%) in physiological saline (0.9%) solution. Parasitemia was monitored via microscopic analysis of tail blood for 60 d post-infection, or until parasites were detected. Mice were removed from the experiment once parasites were detected in the blood. […] Efficacy PK blood samples were collected from three of the five mice prior to dose 7, and at 1 h and 6 h post-dose.

Data set [3] is described as follows: Metabolic stability in human liver microsomes. It is filed as in vitro ADME. The protocol: Metabolic stability was evaluated using liver microsomes derived from mouse and human sources. Microsomal incubations were carried out according to a protocol described previously (Wang et al., Antimicrob. Agents Chemother. 54:2507 (2010)) with modifications. Briefly, substrate stock solutions were prepared in DMSO and DMSO content was kept at 0.5% (v/v) in final incubations. Incubation mixtures ([…]), liver microsomes (0.5 mg/mL) from mouse (pool of 1000, CD-1 male mouse) or human (pool of 50, mixed gender) (XenoTech LLC, Lenexa, Kans.) in a phosphate buffer (100 mM, pH 7.4) containing 3.3 mM MgCl2. After a 5-minute pre-equilibration period at 37° C., reactions (in triplicate) were initiated by adding the NADPH cofactor (1 mM). For NADPH-independent reactions, the cofactor was replaced with water. Aliquots (10 μl) of the reaction mixtures were removed at 0, 15, 30, and 60 minutes and individually mixed with 200 μL of ice-cold acetonitrile containing internal standard. The mixtures were vortex-mixed, and precipitated protein was removed by centrifugation at 2,250×g for 15 min. The supernatant fractions were dried using a 96-well microplate evaporator (Apricot Designs Inc., Covina, Calif.) under N2 at 50° C. and reconstituted with 100 μL 50% methanol containing 0.1% trifluoroacetic acid before UPLC-MS/MS analysis. In vitro half-life (t1/2) was obtained by analyzing the substrate concentration vs. incubation time curve using the one-phase exponential decay model (GraphPad Prism® 5.0, San Diego, Calif.).
(In general: Liver microsomes are a subcellular fraction often used to study metabolism.)

As for `O=C(Nc1ccc2sc(-c3ccc(F)c(F)c3)nc2c1)N1CC[C@H](F)C1` [Compound 1, (S)-2-(3,4-Difluorophenyl)-5-(3-fluoro-N-pyrrolidylamido)benzothiazole], the EC50 in data set [1] was above 10 µM. Moreover, the “mice cured (cures)” value in data set [2] is 5 of 5 and 5/5. Besides, the “Human microsomes, percentage of compound remaining” value in data set [3] (Table 12, after 60 min (where t1/2 > 60 min)) came out at 53%. For the same compound, in data set [3] (both sexes, human, liver microsomes, pH 7.4, Table 12, 37° C., NADPH (1 mM), microsomes 0.5 mg/mL, test compounds 1.5 μM, read-out: Human microsomes t1/2), the half-life at 1.5 μM is above 1 h. Also, the half-life at 3 μM in data set [3] (both sexes, liver microsomes, pH 7.4, human microsomes, read-out: microsomal half-life) turned out to be 1 h.
